The results in this text go back to ChEMBL document CHEMBL1201862, “PubChem BioAssay data set” (2004).

Assay [1] concerns the target Glucose-6-phosphate 1-dehydrogenase (Homo sapiens, UniProt P11413). Nature of the assay: human G6PD enzyme inhibitors, dose response, selectivity assay for P. falciparum G6PD inhibitor project, biochemical, fluorescence (AID 504792). It counts as functional.
A further assay concerns the target Large T antigen (Simian virus 40, UniProt P03070). Format: functional, Betapolyomavirus macacae.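 Further: Confirmatory-stage PubChem screen for compounds that inhibit SV40 T antigen.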
Assay [2] addresses T1, Tyrosine-protein phosphatase non-receptor type 22 (Homo sapiens, UniProt Q9Y2R2).
T1 sequence (Q9Y2R2 whole entry): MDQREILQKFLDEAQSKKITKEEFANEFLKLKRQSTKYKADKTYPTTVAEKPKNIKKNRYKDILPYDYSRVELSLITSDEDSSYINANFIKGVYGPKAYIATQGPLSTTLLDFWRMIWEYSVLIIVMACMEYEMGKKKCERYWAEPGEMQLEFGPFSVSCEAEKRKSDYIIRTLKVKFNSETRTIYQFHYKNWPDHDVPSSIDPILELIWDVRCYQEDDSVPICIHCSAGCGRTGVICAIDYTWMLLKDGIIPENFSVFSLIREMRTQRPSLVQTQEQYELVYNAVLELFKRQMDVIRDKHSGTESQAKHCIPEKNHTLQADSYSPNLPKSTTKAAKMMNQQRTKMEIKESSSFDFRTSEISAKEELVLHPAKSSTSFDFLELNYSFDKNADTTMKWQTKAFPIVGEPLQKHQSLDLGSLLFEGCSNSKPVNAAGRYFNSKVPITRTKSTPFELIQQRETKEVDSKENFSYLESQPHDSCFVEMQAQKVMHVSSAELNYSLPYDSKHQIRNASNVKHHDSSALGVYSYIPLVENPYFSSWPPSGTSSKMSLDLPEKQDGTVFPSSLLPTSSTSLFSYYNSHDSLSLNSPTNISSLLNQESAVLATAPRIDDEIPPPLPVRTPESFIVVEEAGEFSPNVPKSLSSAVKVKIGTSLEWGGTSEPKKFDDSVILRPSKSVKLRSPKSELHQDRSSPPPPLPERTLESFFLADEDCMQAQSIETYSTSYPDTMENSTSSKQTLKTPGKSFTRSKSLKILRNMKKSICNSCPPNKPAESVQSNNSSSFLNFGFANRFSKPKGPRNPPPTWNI
It counts as functional.

Assay [3] concerns the target T2, Tyrosine-protein phosphatase non-receptor type 7 (Homo sapiens, UniProt P35236).
T2 sequence (P35236 whole entry): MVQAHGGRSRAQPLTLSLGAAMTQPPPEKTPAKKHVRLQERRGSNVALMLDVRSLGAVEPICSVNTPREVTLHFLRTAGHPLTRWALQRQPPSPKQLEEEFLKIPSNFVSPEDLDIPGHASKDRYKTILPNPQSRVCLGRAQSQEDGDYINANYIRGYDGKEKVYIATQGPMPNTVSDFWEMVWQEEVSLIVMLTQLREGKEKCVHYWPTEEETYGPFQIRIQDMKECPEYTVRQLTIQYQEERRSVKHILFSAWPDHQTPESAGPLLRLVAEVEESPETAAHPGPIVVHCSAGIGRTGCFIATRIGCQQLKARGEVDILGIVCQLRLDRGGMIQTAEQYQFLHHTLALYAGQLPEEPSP
It counts as functional.

The target in assay [4] is T1, Tyrosine-protein phosphatase non-receptor type 22. Format: functional. The source holds these as a separate data set.
The target of another assay is T3, Caspase-3 (Homo sapiens, UniProt P42574).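 Further: Dose-response selectivity test against caspase-3 for candidate inhibitors of sentrin-specific proteases (SENPs).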
T3 sequence (P42574 whole entry): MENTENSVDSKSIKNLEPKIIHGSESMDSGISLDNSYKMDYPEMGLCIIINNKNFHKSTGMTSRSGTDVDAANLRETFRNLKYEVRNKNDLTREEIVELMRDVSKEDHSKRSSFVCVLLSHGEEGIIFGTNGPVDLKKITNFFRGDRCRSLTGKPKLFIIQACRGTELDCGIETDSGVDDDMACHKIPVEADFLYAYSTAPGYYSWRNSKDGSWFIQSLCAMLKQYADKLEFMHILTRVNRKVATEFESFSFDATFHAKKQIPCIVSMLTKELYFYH
Format: functional.

The target of assay [5] is T4, Sentrin-specific protease 7 (Homo sapiens, UniProt Q9BQF6).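 Further: Luminescence-based dose-response confirmation of ultra-high-throughput screening hits, measuring inhibition of SENP7.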
T4 sequence (Q9BQF6 whole entry): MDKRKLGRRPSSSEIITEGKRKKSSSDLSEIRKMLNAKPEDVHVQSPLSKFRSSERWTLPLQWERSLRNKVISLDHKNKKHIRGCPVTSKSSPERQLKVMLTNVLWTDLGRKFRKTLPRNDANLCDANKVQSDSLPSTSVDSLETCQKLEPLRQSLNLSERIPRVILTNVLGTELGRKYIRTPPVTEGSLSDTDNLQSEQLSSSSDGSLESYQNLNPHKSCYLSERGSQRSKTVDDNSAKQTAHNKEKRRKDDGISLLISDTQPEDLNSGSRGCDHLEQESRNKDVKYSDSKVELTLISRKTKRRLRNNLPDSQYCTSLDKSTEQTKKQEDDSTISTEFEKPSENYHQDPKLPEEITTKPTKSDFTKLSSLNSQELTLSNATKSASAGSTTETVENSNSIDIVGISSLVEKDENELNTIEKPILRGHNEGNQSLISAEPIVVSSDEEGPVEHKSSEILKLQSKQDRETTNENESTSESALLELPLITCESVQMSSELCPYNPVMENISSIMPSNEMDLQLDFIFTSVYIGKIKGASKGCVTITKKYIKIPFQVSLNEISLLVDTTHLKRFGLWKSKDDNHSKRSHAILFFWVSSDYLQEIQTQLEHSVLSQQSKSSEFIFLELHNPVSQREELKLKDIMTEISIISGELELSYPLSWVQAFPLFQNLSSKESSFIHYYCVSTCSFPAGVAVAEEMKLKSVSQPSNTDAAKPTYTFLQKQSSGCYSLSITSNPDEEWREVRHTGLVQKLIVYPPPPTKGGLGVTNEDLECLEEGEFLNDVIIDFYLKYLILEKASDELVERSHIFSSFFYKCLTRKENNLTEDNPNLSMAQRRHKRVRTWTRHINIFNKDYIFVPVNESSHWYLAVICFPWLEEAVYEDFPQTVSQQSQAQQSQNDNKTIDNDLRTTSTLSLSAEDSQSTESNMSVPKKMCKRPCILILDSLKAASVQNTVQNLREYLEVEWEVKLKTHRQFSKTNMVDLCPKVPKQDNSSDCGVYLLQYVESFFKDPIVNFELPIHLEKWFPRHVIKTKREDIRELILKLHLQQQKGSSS
Format: functional.

The target in assay [6] is T5, Sentrin-specific protease 8 (Homo sapiens, UniProt Q96LD8).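 Further: luminescence read-out of SENP8 inhibition, dose-response confirmation following an ultra-high-throughput screen.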
T5 sequence (Q96LD8 whole entry): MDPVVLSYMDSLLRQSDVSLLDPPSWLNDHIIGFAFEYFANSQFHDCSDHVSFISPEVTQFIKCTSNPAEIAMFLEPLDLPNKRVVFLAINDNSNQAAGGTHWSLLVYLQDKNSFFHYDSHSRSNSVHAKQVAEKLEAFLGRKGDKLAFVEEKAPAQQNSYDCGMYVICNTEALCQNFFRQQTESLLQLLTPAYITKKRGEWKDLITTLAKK
Format: functional.

In assay [7] the target is T6, Sentrin-specific protease 6 (Homo sapiens, UniProt Q9GZR1).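 Further: Luminescence-based dose-response confirmatory assay of SENP6 inhibition, following up an ultra-high-throughput screen.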
T6 sequence (Q9GZR1 whole entry): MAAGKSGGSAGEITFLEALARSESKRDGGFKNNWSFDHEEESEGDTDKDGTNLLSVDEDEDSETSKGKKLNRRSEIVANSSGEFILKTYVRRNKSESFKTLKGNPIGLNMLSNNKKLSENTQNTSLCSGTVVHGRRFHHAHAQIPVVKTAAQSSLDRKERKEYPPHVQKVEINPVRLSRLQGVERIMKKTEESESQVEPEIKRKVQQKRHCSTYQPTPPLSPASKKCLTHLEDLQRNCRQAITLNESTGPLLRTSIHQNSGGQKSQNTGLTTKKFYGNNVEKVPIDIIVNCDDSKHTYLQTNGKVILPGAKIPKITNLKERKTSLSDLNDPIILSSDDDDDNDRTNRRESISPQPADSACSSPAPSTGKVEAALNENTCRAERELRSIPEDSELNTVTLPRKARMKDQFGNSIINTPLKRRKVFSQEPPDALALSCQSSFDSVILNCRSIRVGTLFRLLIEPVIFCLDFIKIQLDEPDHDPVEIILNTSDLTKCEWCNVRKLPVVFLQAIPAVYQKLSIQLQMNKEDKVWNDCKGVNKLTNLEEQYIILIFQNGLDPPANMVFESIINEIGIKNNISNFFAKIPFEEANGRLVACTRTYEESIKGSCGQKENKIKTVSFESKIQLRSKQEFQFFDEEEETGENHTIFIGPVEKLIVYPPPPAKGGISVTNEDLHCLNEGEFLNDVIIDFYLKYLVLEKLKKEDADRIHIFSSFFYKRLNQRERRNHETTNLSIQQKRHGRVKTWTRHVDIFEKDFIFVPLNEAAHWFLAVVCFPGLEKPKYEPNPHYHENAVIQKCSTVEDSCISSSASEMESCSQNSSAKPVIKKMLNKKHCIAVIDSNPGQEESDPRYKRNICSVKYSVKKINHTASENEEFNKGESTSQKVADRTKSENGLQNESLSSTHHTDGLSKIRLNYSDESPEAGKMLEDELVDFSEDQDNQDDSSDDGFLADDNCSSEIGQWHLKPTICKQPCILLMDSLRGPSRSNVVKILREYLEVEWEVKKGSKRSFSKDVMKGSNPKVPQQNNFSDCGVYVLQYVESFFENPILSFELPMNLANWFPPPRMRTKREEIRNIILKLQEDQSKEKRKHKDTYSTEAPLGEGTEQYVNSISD
It counts as functional.

The target of assay [8] is UDP-galactopyranose mutase (Mycobacterium tuberculosis, UniProt P9WIQ1). Nature of the assay: Inhibitors of Mycobacterium tuberculosis UDP-galactopyranose mutase (UGM) enzyme Measured in Biochemical System Using Plate Reader - 2105-02_Inhibitor_Dose_CherryPick_Activity. [Related pubchem assays (depositor defined):AID504439].
For assay [9], the target named is DNA dC->dU-editing enzyme APOBEC-3G (Homo sapiens, UniProt Q9HC16). Format: functional.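 Further: Dose-response counterscreen measuring inhibition of APOBEC3G DNA deaminase activity, run while confirming APOBEC3A inhibitors.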
Assay [10] deals with T7, RNA-binding protein pos-1 (Caenorhabditis elegans, UniProt G5EF15).
T7 sequence (G5EF15 whole entry): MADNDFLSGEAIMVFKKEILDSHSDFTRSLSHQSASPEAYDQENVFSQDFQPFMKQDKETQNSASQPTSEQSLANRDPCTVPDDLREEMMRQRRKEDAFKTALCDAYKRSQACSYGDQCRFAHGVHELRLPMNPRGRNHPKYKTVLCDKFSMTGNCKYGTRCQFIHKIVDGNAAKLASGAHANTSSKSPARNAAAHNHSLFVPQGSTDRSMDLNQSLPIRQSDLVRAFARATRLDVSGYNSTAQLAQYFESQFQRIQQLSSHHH
The experiment in a line: inhibitors of POS-1/mex-3 RNA binding, dose response, biochemical, fluorescence polarization (AID 1964).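 Further: purified POS-1 fused to maltose binding protein made in E. coli; potency of compounds blocking POS-1 binding to fluorescent RNA.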 A general note: Polarisation of emitted light reports the rotation of a fluorescent probe.

The target of assay [11] is DNA dC->dU-editing enzyme APOBEC-3A (Homo sapiens, UniProt P31941). Nature of the assay: Dose Response confirmation of small molecule APOBEC3A DNA Deaminase Inhibitors via a fluorescence-based single-stranded DNA deaminase assay. [Related pubchem assays (depositor defined):AID493011, AID493024]. Format: functional.
Assay [12] concerns the target T8, Zinc finger protein mex-5 (Caenorhabditis elegans, UniProt Q9XUB2).
T8 sequence (Q9XUB2 whole entry): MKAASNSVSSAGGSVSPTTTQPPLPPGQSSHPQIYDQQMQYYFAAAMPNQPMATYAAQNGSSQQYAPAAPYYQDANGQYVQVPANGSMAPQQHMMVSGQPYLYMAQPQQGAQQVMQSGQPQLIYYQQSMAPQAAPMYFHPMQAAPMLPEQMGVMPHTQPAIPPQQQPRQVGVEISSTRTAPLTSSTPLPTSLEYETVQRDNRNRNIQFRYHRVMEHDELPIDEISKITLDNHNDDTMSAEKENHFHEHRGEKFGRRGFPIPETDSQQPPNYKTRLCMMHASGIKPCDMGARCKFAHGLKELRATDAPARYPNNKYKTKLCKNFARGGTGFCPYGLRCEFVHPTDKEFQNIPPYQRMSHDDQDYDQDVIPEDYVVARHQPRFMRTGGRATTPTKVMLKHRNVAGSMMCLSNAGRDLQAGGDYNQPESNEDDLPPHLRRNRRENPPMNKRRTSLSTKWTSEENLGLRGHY
Nature of the assay: MEX-5/TCR-2 RNA interaction inhibitors, dose response, biochemical, C. elegans, fluorescence polarization (AID 1960).

Active and inactive are the calls of the source. For most assays here, no stated cut-off is given here; in the data, actives have a measured IC50 and inactives only a lower limit.

Sequence of UDP-galactopyranose mutase (P9WIQ1 whole entry): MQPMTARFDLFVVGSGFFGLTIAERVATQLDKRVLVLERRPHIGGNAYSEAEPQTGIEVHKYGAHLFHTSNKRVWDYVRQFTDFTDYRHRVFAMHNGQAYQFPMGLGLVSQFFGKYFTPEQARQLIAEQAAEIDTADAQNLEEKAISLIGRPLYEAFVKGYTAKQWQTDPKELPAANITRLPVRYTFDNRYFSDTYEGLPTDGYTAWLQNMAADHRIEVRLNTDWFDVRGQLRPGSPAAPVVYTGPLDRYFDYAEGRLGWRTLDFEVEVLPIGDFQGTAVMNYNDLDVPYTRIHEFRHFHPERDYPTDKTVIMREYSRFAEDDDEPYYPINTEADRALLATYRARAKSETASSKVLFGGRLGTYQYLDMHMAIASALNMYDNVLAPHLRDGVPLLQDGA
Sequence of Glucose-6-phosphate 1-dehydrogenase (P11413 whole entry): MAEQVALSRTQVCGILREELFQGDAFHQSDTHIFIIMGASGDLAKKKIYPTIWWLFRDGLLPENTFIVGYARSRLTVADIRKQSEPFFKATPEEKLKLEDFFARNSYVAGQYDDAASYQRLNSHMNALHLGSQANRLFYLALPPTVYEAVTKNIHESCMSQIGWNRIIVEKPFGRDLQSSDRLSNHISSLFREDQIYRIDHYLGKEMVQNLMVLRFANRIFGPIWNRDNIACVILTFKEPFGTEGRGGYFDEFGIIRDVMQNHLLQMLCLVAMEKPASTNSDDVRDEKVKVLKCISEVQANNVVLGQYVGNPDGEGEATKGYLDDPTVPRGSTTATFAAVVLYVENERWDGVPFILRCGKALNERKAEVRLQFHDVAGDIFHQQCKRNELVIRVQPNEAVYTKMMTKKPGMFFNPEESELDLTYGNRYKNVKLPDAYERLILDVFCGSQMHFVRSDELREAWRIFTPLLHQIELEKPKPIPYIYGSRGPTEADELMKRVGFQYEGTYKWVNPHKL
Sequence of DNA dC->dU-editing enzyme APOBEC-3A (P31941 whole entry): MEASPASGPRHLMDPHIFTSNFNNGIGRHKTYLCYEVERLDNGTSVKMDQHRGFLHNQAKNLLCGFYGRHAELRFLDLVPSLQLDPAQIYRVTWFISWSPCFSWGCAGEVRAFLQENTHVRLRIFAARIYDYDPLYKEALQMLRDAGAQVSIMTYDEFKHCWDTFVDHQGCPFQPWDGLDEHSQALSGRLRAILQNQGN
Sequence of DNA dC->dU-editing enzyme APOBEC-3G (Q9HC16 whole entry): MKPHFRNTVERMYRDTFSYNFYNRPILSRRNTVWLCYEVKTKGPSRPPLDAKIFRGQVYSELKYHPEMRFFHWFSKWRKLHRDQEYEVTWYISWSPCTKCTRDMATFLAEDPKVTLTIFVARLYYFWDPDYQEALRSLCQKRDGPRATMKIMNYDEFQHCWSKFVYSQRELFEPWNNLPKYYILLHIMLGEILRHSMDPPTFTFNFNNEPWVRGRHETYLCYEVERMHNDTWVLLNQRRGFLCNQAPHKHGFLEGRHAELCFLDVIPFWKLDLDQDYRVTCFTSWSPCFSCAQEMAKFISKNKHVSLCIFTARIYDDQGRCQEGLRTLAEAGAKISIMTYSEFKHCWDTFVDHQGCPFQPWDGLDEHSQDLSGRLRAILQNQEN
Sequence of Large T antigen (P03070 whole entry): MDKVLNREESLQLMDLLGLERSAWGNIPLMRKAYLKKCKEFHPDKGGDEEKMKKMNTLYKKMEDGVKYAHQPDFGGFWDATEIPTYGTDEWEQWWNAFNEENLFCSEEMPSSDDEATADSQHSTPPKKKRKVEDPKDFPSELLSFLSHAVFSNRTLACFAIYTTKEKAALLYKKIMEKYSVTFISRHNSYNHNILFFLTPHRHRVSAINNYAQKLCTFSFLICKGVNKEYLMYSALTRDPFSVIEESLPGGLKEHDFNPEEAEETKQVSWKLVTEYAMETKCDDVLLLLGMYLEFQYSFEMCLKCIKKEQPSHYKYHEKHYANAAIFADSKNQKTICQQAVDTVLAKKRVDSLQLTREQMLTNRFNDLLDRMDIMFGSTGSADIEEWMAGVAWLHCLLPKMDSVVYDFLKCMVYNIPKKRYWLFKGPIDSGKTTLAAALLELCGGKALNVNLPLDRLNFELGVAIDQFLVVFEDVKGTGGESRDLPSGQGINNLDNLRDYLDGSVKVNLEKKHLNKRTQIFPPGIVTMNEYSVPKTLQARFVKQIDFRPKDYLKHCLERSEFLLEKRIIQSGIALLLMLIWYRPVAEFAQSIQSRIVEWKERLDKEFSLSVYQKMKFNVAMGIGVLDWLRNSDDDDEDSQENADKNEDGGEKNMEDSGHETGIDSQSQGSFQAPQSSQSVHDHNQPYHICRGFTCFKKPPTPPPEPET

Regarding `c1cncc(CNc2ccc3c(c2)OCO3)c1`, the results for the IC50 (in assay [1]; on Large T antigen) were > 80 µM (inactive) and 25.4 µM (active), respectively.

Take `CCC1CCCCN1CCCNC(=O)c1ccc(CS(=O)(=O)Cc2ccccc2F)o1` (stereo unspecified): the IC50 in assay [2], in assay [3] and in [4] was > 79.4 µM (inactive) in each case.

On to `c1csc(-c2csc(-c3cccs3)n2)c1`, for which the IC50 – broadly, the concentration needed to halve the response being measured – at Caspase-3 is 25.3 µM (active); in [5], 5.92 µM (active); in [6], 28.2 µM (active); in assay [7], 20.1 µM (active).

In the case of `CC1=NN(C(N)=S)C(=O)C1N=Nc1ccc(Cl)cc1` (stereo unspecified), the IC50 on Caspase-3 is 1.59 µM (active); in assay [5], 2.07 µM (active); in assay [6], 2.58 µM (active); in assay [7] it was 2.96 µM (active).

In the case of `Cc1cc(C)cc(OCC(=O)N/N=C\c2cn(C)nc2C)c1`, the IC50 in [2], in [3] and in assay [4] was > 79.4 µM (inactive) in each case.

For the compound `NC(=O)C[n+]1cccc2ccccc21`, in [8], the AC50 (as a rule, the concentration giving half of the maximal activity seen) is 311 µM (active). Besides, the figures for the IC50 in assay [9] and in [11] were 2.52 µM (active) and 2.69 µM (active), respectively. The values for the EC50 in assay [10] and in assay [12] were 29.7 µM (active) and 22.3 µM (active), respectively.
